According to patent US6706709B2, “Indolinone derivatives as protein kinase/phosphatase inhibitors” (Sugen, Inc., priority 2000, dated 2004):

Assays:
EGF Receptor = biological target: T1, EGF Receptor (Homo sapiens, UniProt P00533); test: bio EGF (EGF Receptor ELISA); assay type: biochemical
T1 construct: expressed in transfected cells; host or cells: NIH 3T3/C7 (mouse fibroblasts engineered to express human EGF-R)
Procedure: EGF Receptor kinase activity in cells genetically engineered to express human EGF-R was measured as described below:
The following materials and reagents were used:
b. 05-101 (UBI) (a monoclonal antibody recognizing an EGFR extracellular domain).
c. Anti-phosphotyrosine antibody (anti-Ptyr) (polyclonal).
d. Detection antibody: Goat anti-rabbit lgG horse radish peroxidase conjugate, TAGO, Inc., Burlingame, Calif.
Keep solution in dark at 4° C. until used.
The following protocol was used:
1. […] Coated plates are good for up to 10 days when stored at 4° C.
2. On day of use, remove coating buffer and replace with blocking buffer (5% Carnation Instant Non-Fat Dry Milk in PBS). Incubate the plate, shaking, at room temperature (about 23° C. to 25° C.) for 30 minutes. Just prior to use, remove blocking buffer and wash plate 4 times with TBST buffer.
2. Choose dishes having 80-90% confluence for the experiment. Trypsinize cells and stop reaction by adding 10% CS DMEM medium. Suspend cells in DMEM medium (10% CS DMEM medium) and centrifuge once at 1000 rpm at room temperature for 5 minutes.
3. Resuspend cells in seeding medium (DMEM, 0.5% bovine serum), and count the cells using trypan blue. Viability above 90% is acceptable. Seed cells in DMEM medium (0.5% bovine serum) at a density of 10,000 cells per well, 100 μL per well, in a 96 well microtiter plate. Incubate seeded cells in 5% CO2 at 37° C. for about 40 hours.
1. Check seeded cells for contamination using an inverted microscope. Dilute drug stock (10 mg/ml in DMSO) 1:10 in DMEM medium, then transfer 5 μL to a test well for a final drug dilution of 1:200 and a final DMSO concentration of 1%. Control wells receive DMSO alone. Incubate in 5% CO2 at 37° C. for one hour.
2. Prepare EGF ligand: dilute stock EGF in DMEM so that upon transfer of 10 μL dilute EGF (1:12 dilution), 25 nM final concentration is attained.
3. Prepare fresh 10 ml HNTG* sufficient for 100 μL per well wherein HNTG* comprises: HNTG stock (2.0 mL), milli-Q H2O (7.3 mL), EDTA, 100 mM, pH 7.0 (0.5 mL), Na3VO4 0.5 M (0.1 mL) and Na4(P2O7), 0.2 M (0.1 mL).
5. After two hours incubation with drug, add prepared EGF ligand to cells, 10 μL per well, to yield a final concentration of 25 nM. Control wells receive DMEM alone. Incubate, shaking, at room temperature, for 5 minutes.
6. Remove drug, EGF, and DMEM. Wash cells twice with PBS. Transfer HNTG* to cells, 100 μL per well. Place on ice for 5 minutes. Meanwhile, remove blocking buffer from other ELISA plate and wash with TBST as described above.
7. With a pipette tip securely fitted to a micropipettor, scrape cells from plate and homogenize cell material by repeatedly aspirating and dispensing the HNTG* lysis buffer. Transfer lysate to a coated, blocked, and washed ELISA plate. Incubate shaking at room temperature for one hour.
8. Remove lysate and wash 4 times with TBST. Transfer freshly diluted anti-Ptyr antibody to ELISA plate at 100 μL per well. Incubate shaking at room temperature for 30 minutes in the presence of the anti-Ptyr antiserum (1:3000 dilution in TBST).
9. Remove the anti-Ptyr antibody and wash 4 times with TBST. Transfer the freshly diluted TAGO 30 anti-rabbit IgG antibody to the ELISA plate at 100 μL per well. Incubate shaking at room temperature for 30 minutes (anti-rabbit IgG antibody: 1:3000 dilution in TBST).
10. Remove detection antibody and wash 4 times with TBST. Transfer freshly prepared ABTS/H2O2 solution to ELISA plate, 100 μL per well. Incubate at room temperature for 20 minutes. ABTS/H2O2 solution: 1.2 μL 30% H2O2in 10 mL ABTS stock.
11. Stop reaction by adding 50 μL 5N H2SO4 (optional), and determine O.D. at 410 nm.
12. The maximal phosphotyrosine signal is determined by subtracting the value of the negative controls from the positive controls. The percent inhibition of phosphotyrosine content for extract-containing wells is then calculated, after subtraction of the negative controls.

GST-Flk1 = GST-Flk1 (UniProt P35918); test: GST-FLK-1 bioassay (bio flkGST); assay type: biochemical
Procedure: This assay analyzes the tyrosine kinase activity of GST-Flk1 on poly glu tyr peptides.
2. poly glu tyr 4:1, lyophilizate (Sigma Catalog # P0275). Prepare 1 mg/mL poly glu tyr in sterile PBS and store in 1 ml aliquots at −20° C.
3. Preparation of poly glu tyr (pEY) coated assay plates: Coat 2 μg/well of poly glu tyr (pEY) in 100 μL PBS at room temperature for 2 hours or at +4° C. overnight. Cover plates well to prevent evaporation.
4. PBS Buffer: To make 1 liter of a 1× working solution, mix […], 1.15 g NA2HPO4, 0.2 g KCl and 8 g NaCl in approx. 900 mL dH2O. When all reagents have dissolved, adjust the pH to 7.2 with HCl. Bring total volume to 1L with dH2O.
5. PBS-Tw Buffer: To 1L of PBS Buffer, add […] Tween-20. Stir until dissolved.
6. TBB-Blocking Buffer: To make one liter of a 1× working solution, mix 1.21 g TRIS, 8.77 g NaCl, 1 mL TWEEN-20 in approximately 900 mL dH2O. Adjust pH to 7.2 with HCl. Add 10 g BSA, stir to dissolve. Bring total volume to 1 L with dH2O. Filter to remove particulate matter.
7. 1% BSA in PBS: To make a 1× working solution, add 10 g BSA to approx. 990 mL PBS buffer, stir to dissolve. Adjust total volume to 1 L with PBS buffer, filter to remove particulate matter.
9. GST-Flk1cd purified from sf9 recombinant baculovirus transformation.
13. Kinase Dilution Buffer (KDB): Mix 10 mL Hepes (pH 7.5), 1 mL of 5 M NaCl, 40 μL of 100 mM NaVO4 and 0.4 mL of 5% BSA in dH2O with 88.56 mL of dH2O.
14. NUNC-96-well V bottom polypropylene plates Applied Scientific Catalog # AS-72092
15. EDTA: Mix 14.12 g ethylenediaminetetraacetic acid (EDTA) to approx. 70 mL dH2O. Add 10N NaOH until EDTA dissolves. Adjust pH to 8.0. Adjust total volume to 100 mL with dH2O.
16. 1° Antibody Dilution Buffer: Mix 10 mL of 5% BSA in PBS buffer with 89.5 mL TBSTw.
17. Anti-phosphotyrosine monoclonal conjugated to horseradish peroxidase (PY99 HRP, Santa Cruz Biotech).
18. 2,2′-Azino-bis(3-ethylbenzthiazoline-6-sulfonic acid (ABTS, Moss, Cat. No. ABST).
1. Coat Corning 96 well ELISA plates with 2 μg of polyEY peptide in sterile PBS as described in step 3 of Materials and Reagents.
2. Remove unbound liquid from wells by inverting plate. Wash once with TBSTw. Pat the plate on a paper towel to remove excess liquid.
3. Add 100 μL of 1% BSA in PBS to each well. Incubate, with shaking, for 1 hr. at room temperature.
5. Soak wells with 50 mM Hepes pH7.5 (150 μL/well).
6. Dilute test compound with dH2O/4% DMSO to 4 times the desired final assay concentration in 96-well polypropylene plates.
7. Add 25 μL diluted test compound to ELISA plate.
8. Add 25 μL of 40 mM MnCl2 with 4×ATP (2 μM) to all wells.
9. Add 25 μL 0.5 M EDTA to negative control wells.
10. Dilute GST-Flk1 0.005 μg (5 ng)/well in KDB. For 50 ml KDB add 100 μL of 0.050 mg/mL GST-Flk1 enzyme.
11. Add 50 μL of diluted enzyme to each well.
12. Incubate, with shaking, for 15 minutes at room temperature.
13. Stop reaction by adding 50 μL of 250 mM EDTA (pH 8.0).
14. Wash 3× with TBSTw and pat plate on paper towel to remove excess liquid.
15. Add 100 μL per well anti-phosphotyrosine HRP conjugate, 1:5,000 dilution in antibody dilution buffer. Incubate, with shaking for 90 min. at room temperature.
16. Wash as described above in step 14.
17. Add 100 μL of room temperature ABTS solution to each well.
18. Incubate, with shaking, for 10 to 15 minutes. Remove any bubbles.
19. Stop reaction by adding 20 μL of 10% SDS.
20. Read assay on Dynatech MR7000 ELISA reader: test filter at 410 nM; reference filter at 630 nM.

T1 sequence (P00533 25-1210): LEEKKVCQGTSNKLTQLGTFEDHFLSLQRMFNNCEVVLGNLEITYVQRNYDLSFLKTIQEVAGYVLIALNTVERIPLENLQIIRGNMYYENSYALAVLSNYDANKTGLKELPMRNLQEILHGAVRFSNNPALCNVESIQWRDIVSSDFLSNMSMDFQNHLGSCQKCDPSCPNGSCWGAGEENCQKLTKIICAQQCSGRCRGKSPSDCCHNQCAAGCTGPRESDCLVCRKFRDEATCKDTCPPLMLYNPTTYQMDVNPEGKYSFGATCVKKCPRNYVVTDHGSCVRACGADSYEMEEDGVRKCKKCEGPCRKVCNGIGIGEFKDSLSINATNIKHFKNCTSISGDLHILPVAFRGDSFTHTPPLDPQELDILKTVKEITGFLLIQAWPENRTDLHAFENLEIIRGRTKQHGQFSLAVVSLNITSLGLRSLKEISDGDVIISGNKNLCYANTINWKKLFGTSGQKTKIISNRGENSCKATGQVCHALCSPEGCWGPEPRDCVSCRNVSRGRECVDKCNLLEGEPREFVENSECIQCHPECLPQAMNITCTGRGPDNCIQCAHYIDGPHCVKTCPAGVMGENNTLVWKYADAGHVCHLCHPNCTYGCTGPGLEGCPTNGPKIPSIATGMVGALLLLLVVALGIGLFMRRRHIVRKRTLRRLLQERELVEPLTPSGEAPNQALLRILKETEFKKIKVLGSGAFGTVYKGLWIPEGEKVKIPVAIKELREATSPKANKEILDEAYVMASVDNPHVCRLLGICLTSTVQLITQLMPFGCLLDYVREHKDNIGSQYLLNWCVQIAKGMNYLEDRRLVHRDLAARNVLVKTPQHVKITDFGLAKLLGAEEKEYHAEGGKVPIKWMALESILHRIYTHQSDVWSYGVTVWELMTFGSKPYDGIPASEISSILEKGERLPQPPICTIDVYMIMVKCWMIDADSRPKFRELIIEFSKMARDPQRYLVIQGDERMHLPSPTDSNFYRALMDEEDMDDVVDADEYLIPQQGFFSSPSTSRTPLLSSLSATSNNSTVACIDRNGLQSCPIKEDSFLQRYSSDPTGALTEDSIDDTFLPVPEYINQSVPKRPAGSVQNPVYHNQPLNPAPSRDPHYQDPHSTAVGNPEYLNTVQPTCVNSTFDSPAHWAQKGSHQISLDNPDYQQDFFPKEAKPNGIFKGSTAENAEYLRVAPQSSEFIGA

Compound	IC50 (EGF Receptor) [nM]	IC50 (GST-Flk1) [nM]
CCN(CC)CCOc1ccc2[nH]c(C=C3C(=O)Nc4ccc(Br)cc43)cc2c1 [IN-017, 5-bromo-3-[5-(2-diethylamino-ethoxy)-1H-indol-2-ylmethylene]-1,3-dihydro-indol-2-one]	4670	10
CCN(CC)CCOc1ccc2[nH]c(C=C3C(=O)Nc4ccc(-c5ccccc5)cc43)cc2c1 [IN-019, 3-[5-(2-diethylamino-ethoxy)-1H-indol-2-ylmethylene]-5-phenyl-1,3-dihydro-indol-2-one]	9550	160
O=C1Nc2ccc(C(=O)O)cc2C1=Cc1cc2cc(OCCN3CCCC3)ccc2[nH]1 [IN-022, 2-oxo-3-[5-(2-pyrrolidin-1-yl-ethoxy)-1H-indol-2-ylmethylene]-2,3-dihydro-1H-indole-5-carboxylic acid]	> 20000	140
O=C1Nc2cc(C(=O)O)ccc2C1=Cc1cc2cc(OCCN3CCCC3)ccc2[nH]1 [IN-023, 2-oxo-3-[5-(2-pyrrolidin-1-yl-ethoxy)-1H-indol-2-ylmethylene]-2,3-dihydro-1H-indole-6-carboxylic acid]	> 20000	240
O=C1Nc2cccc(CCO)c2C1=Cc1cc2cc(OCCN3CCCC3)ccc2[nH]1 [IN-024, 4-(2-hydroxy-ethyl)-3-[5-(2-pyrrolidin-1-yl-ethoxy)-1H-indol-2-ylmethylene]-1,3-dihydro-indol-2-one]	> 20000	< 10
O=C1Nc2ccc(C(=O)O)cc2C1=Cc1cc2cc(OCCN3CCOCC3)ccc2[nH]1 [IN-030, 3-[5-(2-morpholin-4-yl-ethoxy)-1H-indol-2-ylmethylene]-2-oxo-2,3-dihydro-1H-indole-5-carboxylic acid]	> 20000	< 9
O=C1Nc2cc(C(=O)O)ccc2C1=Cc1cc2cc(OCCN3CCOCC3)ccc2[nH]1 [IN-031, 3-[5-(2-morpholin-4-yl-ethoxy)-1H-indol-2-ylmethylene]-2-oxo-2,3-dihydro-1H-indole-6-carboxylic acid]	> 20000	530

The remaining lines, values ahead:

IC50 (EGF Receptor) [nM]	IC50 (GST-Flk1) [nM]	Compound
> 10000	50	CCN(CC)CCOc1ccc2[nH]c(C=C3C(=O)Nc4ccccc43)cc2c1 [IN-016, 3-[5-(2-diethylamino-ethoxy)-1H-indol-2-ylmethylene]-1,3-dihydro-indol-2-one]
> 100000	5410	CCN(CC)CCOc1ccc2[nH]c(C=C3C(=O)Nc4cc(-c5ccccc5)ccc43)cc2c1 [IN-018, 3-[5-(2-diethylamino-ethoxy)-1H-indol-2-ylmethylene]-6-phenyl-1,3-dihydro-indol-2-one]
> 20000	140	O=C1Nc2cc(-c3cccnc3)ccc2C1=Cc1cc2cc(OCCN3CCCC3)ccc2[nH]1 [IN-025, 6-pyridin-3-yl-3-[5-(2-pyrrolidin-1-yl-ethoxy)-1H-indol-2-ylmethylene]-1,3-dihydro-indol-2-one]
> 20000	760	COc1ccc(-c2ccc3c(c2)NC(=O)C3=Cc2cc3cc(OCCN4CCCC4)ccc3[nH]2)cc1 [IN-026, 6-(4-methoxy-phenyl)-3-[5-(2-pyrrolidin-1-yl-ethoxy)-1H-indol-2-ylmethylene]-1,3-dihydro-indol-2-one]
> 20000	2010	COc1cccc(-c2ccc3c(c2)NC(=O)C3=Cc2cc3cc(OCCN4CCCC4)ccc3[nH]2)c1 [IN-027, 6-(3-methoxy-phenyl)-3-[5-(2-pyrrolidin-1-yl-ethoxy)-1H-indol-2-ylmethylene]-1,3-dihydro-indol-2-one]
6060	660	COc1ccccc1-c1ccc2c(c1)NC(=O)C2=Cc1cc2cc(OCCN3CCCC3)ccc2[nH]1 [IN-028, 6-(2-methoxy-phenyl)-3-[5-(2-pyrrolidin-1-yl-ethoxy)-1H-indol-2-ylmethylene]-1,3-dihydro-indol-2-one]
> 20000	760	O=C1Nc2cc(-c3ccc(F)cc3)ccc2C1=Cc1cc2cc(OCCN3CCCC3)ccc2[nH]1 [IN-029, 6-(4-fluoro-phenyl)-3-[5-(2-pyrrolidin-1-yl-ethoxy)-1H-indol-2-ylmethylene]-1,3-dihydro-indol-2-one]
